From paper PMC12154458, “High-Throughput Screens of Repurposing Hub and DOS Chemical Libraries Reveal Compounds with Novel and Potent Inhibitory Activity Against the Essential Non-Neuronal Acetylcholinesterase of Schistosoma mansoni (SmTAChE)” (International Journal of Molecular Sciences, 2025)
“Also recorded” adds a separate entry of the source. Where two headings read alike, the source gives them in different places.

Assays:
[1] = molecular target: recombinant human acetylcholinesterase, rHsAChE (Homo sapiens, UniProt P22303); assay: biochemical
rSmTAChE [2] = molecular target: T1, rSmTAChE (Schistosoma mansoni, UniProt A0A3Q0KMM5); assay type: biochemical; settings: for IC50: read-out: IC50 (µM) rSmTAChE;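 on Inhibition (%) (Average): mostly 20 µM final but a few compounds at 5 or 10 µM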;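 on Inhibition (%) Replicate A: mostly 20 µM final but a few compounds at 5 or 10 µM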;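 on Inhibition (%) Replicate B: mostly 20 µM final but a few compounds at 5 or 10 µM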
rSmTAChE [3] = molecular target: T1, rSmTAChE; assay: biochemical
[4] = Table 3, read-out: IC50 (µM) rHsAChE
[5] = dose response analysis of Drug Repurposing Hub hits against rHsAChE
[6] = read-out: rSmTAChE HTS Inhibition (Ave, %)
[7] = read-out: HTS/rSmTAChE Inhibition (Ave, %)

recombinant human acetylcholinesterase, rHsAChE, sequence (P22303 32-614): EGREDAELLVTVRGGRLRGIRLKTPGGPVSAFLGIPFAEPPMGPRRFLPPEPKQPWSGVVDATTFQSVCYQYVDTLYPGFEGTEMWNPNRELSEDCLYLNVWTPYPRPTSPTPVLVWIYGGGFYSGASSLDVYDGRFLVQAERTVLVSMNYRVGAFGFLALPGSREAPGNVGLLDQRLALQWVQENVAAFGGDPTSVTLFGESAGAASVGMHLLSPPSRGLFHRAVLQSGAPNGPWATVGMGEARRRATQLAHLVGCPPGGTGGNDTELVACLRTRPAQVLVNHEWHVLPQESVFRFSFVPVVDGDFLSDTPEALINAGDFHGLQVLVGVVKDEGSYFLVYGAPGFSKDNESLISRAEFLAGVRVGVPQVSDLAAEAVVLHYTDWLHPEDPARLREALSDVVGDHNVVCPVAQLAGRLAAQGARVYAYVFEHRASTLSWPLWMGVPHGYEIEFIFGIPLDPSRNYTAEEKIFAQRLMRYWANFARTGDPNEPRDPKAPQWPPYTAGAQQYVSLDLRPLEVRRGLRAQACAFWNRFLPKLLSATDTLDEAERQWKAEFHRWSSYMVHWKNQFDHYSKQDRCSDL
T1 sequence (A0A3Q0KMM5 27-661 limits assumed): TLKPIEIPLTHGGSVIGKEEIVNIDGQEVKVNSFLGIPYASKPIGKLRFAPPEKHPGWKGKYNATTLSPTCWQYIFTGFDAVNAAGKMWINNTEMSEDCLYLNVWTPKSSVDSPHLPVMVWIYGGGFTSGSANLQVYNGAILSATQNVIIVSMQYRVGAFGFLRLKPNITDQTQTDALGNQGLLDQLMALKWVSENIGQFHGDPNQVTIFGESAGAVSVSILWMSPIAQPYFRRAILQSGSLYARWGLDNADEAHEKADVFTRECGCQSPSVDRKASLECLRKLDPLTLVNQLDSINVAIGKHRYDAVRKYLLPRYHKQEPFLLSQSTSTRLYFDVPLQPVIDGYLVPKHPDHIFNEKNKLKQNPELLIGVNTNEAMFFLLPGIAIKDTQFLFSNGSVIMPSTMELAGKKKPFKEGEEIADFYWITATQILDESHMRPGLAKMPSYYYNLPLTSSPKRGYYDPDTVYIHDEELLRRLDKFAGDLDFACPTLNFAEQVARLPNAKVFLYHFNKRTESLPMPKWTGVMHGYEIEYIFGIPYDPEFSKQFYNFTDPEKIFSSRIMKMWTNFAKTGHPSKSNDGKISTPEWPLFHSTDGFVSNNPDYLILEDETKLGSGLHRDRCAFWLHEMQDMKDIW

COc1ccc(-c2ccc3ncc4c(c3c2)n(-c2ccc(N3CCNCC3)c(C(F)(F)F)c2)c(=O)n4C)cn1 [NVP-BGT226, reference compound]
SI (Sm/Hs) [1]: 2.81 | IC50 [1, 4]: > 13.5 µM | Data Mode (curve class), rHsAChE [1, 5]: decreasing (weakly active) | Data Mode (curve class), rSmTAChE (rSmTAChE [2]): decreasing (weakly active) | inhibition at 10 µM (rSmTAChE [3]; [6]): 84.3%

CN(C)C(=O)Oc1cccc([N+](C)(C)C)c1 [Neostigmine bromide, reference compound]
Data Mode (curve class), rHsAChE [1]: decreasing | Data Mode (curve class), rSmTAChE (rSmTAChE [2]): decreasing | inhibition at 20 µM (rSmTAChE [3]; [6]): 88.1%

CCCCCCCC/C=C\CCCCCCCC(=O)NCCc1ccc(O)c(O)c1 [OLDA, reference compound]
Data Mode (curve class), rHsAChE [1]: decreasing (weakly active) | SI (Sm/Hs) [1]: 2.67 | IC50 ([1]; read-out: IC50 (µM) rHsAChE): > 13.5 µM | Data Mode (curve class), rSmTAChE (rSmTAChE [2]): decreasing | IC50 (rSmTAChE [2]): 36.1 µM | Inhibition (%) Replicate A (rSmTAChE [3]): 93.41% | Inhibition (%) Replicate B (rSmTAChE [3]): 95.51% | rSmTAChE HTS Inhibition (Ave, %) (rSmTAChE [3]; 20 µM): 94.46%

O=C(Nc1cccc2c(=O)cc(-c3nnn[nH]3)oc12)c1ccc(OCCCCc2ccccc2)cc1 [Pranlukast, reference compound]
SI (Sm/Hs) [1]: 2.18 | IC50 ([1]; IC50 (µM) rHsAChE): 12.6 µM | Data Mode (curve class), rHsAChE [1, 5]: decreasing | Data Mode (curve class), rSmTAChE (rSmTAChE [2]): decreasing | inhibition at 20 µM (rSmTAChE [3]; [6]): 66.3%

Cc1cn2nc([C@@H]3CCCCN3C(=O)c3cc(Cl)ccc3NS(C)(=O)=O)cc2nc1N1CC[C@H](N)C1 [Presatovir, reference compound]
Data Mode (curve class), rHsAChE [1, 5]: decreasing (weakly active) | Data Mode (curve class), rSmTAChE (rSmTAChE [2]): decreasing | inhibition at 20 µM (rSmTAChE [3]; [7]): 66.9%

CC(C)(Sc1cc(C(C)(C)C)c(O)c(C(C)(C)C)c1)Sc1cc(C(C)(C)C)c(O)c(C(C)(C)C)c1 [Probucol, reference compound]
SI (Sm/Hs) [1]: 5.36 | IC50 ([1]; IC50 (µM) rHsAChE): 7.09 µM | Data Mode (curve class), rHsAChE [1, 5]: decreasing | Data Mode (curve class), rSmTAChE (rSmTAChE [2]): decreasing (weakly active) | inhibition at 20 µM (rSmTAChE [3]; [6]): 93.7%

CN(C)C(=O)Oc1ccc[n+](C)c1 [Pyridostigmine bromide, reference compound]
Data Mode (curve class), rHsAChE [1]: decreasing (super-active) | Data Mode (curve class), rSmTAChE (rSmTAChE [2]): decreasing | inhibition at 20 µM (rSmTAChE [3]; [6]): 92.4%

CCCCC(CC)CCC(CC(C)C)OS(=O)(=O)O (stereo not drawn) [Sodium-tetradecyl-sulfate, reference compound]
SI (Sm/Hs) [1]: 2.01 | IC50 [1, 4]: 5.66 µM | Data Mode (curve class), rHsAChE [1, 5]: decreasing | Data Mode (curve class), rSmTAChE (rSmTAChE [2]): decreasing | inhibition at 20 µM (rSmTAChE [3]; [6]): 74.7%

Cc1cc(OCCCS(C)(=O)=O)cc(C)c1-c1cccc(COc2ccc3c(c2)OC[C@H]3CC(=O)O)c1 [TAK-875, reference compound]
Data Mode (curve class), rHsAChE [1, 5]: decreasing (weakly active) | Data Mode (curve class), rSmTAChE (rSmTAChE [2]): decreasing | SI (Hs/Sm) (rSmTAChE [2]): 2.25 | inhibition at 20 µM (rSmTAChE [3]; [7]): 65%

Cc1cnc(Nc2ccc(N3CCN(C)CC3)cc2)nc1Nc1cccc(S(=O)(=O)NC(C)(C)C)c1 [TG-101209, reference compound]
Data Mode (curve class), rHsAChE [1]: decreasing | IC50 ([1]; read-out: IC50 (µM) rHsAChE): 15.4 µM | IC50 ([1]; read-out: qAC50 (IC50), rHsAChE): 15.4 µM | Data Mode (curve class), rSmTAChE (rSmTAChE [2]): decreasing | SI (Hs/Sm) (rSmTAChE [2]): 2.51 | IC50 (rSmTAChE [2]): 6.13 µM | Inhibition (%) (Average) (rSmTAChE [3]): 70.99% | Inhibition (%) Replicate A (rSmTAChE [3]): 68.94% | Inhibition (%) Replicate B (rSmTAChE [3]): 73.04% | HTS/rSmTAChE Inhibition (Ave, %) (rSmTAChE [3]; 20 µM): 71.00%

CCCCCCCCCCCCCCCC[N+](C)(C)CCN(Cc1ccc(OC)cc1)c1ncccn1 [Thonzonium bromide, reference compound]
SI (Sm/Hs) [1]: 2.92 | IC50 ([1]; IC50 (µM) rHsAChE): 0.38 µM | Data Mode (curve class), rHsAChE [1, 5]: decreasing | Data Mode (curve class), rSmTAChE (rSmTAChE [2]): decreasing | inhibition at 20 µM (rSmTAChE [3]; [6]): 67%

Oc1cc(Cl)ccc1Oc1ccc(Cl)cc1Cl [Triclosan, reference compound]
Data Mode (curve class), rHsAChE [1]: decreasing (weakly active) | Data Mode (curve class), rSmTAChE (rSmTAChE [2]): decreasing | SI (Hs/Sm) (rSmTAChE [2]): 5.78 | inhibition at 20 µM (rSmTAChE [3]; [7]): 68%

CCN(c1ccccc1)c1cc(=NC)n(C)c(C)n1 [ZD-7288, 4-ethylphenylamino-1,2-dimethyl-6-methylaminopyrimidinium chloride, reference compound]
IC50 ([1]; Table 1, Inactive = inactive at the maximum tested concentration (40 µM), read-out: IC50 (µM) rHsAChE): > 19.5 µM | Data Mode (curve class), rHsAChE [1, 5]: decreasing (weakly active) | IC50 ([1]; read-out: IC50 for rHsAChE): ~20 µM | Data Mode (curve class), rSmTAChE (rSmTAChE [2]): decreasing | SI (Hs/Sm) (rSmTAChE [2]): 46.87 | fold greater potency/selectivity for SmTAChE vs. HsAChE (Selectivity Index) (rSmTAChE [2]): ~50 fold | inhibition at 10 µM (rSmTAChE [3]; [7]): 75%

SR-33805 [reference compound]
IC50 (µM) rHsAChE [1]: Inactive | inhibition of rHsAChE, result in words [1]: no inhibition detected; also recorded: no activity detected | Data Mode (curve class), rSmTAChE (rSmTAChE [2]): decreasing | IC50 (rSmTAChE [2]): 6.82 µM | Inhibition (%) (Average) (rSmTAChE [3]): 74.26% | Inhibition (%) Replicate A (rSmTAChE [3]): 73.90% | Inhibition (%) Replicate B (rSmTAChE [3]): 74.62% | HTS/rSmTAChE Inhibition (Ave, %) (rSmTAChE [3]; 5 µM): 74.26%
